# Results: patent publication US20150105252A1, “SUBSTITUTED PYRAZOLES AS HERBICIDES” (E I DU PONT DE NEMOURS AND COMPANY, priority 2013, published 2015)
# What was measured:
# [1] = system: ryegrass, Italian; assay: Test D postemergence; assay type: in vivo, Lolium multiflorum; conditions: scale 0 to 100
# Excerpt: (§1) Seeds of plant species selected from bluegrass (annual bluegrass, Poa annua), blackgrass (Alopecurus myosuroides), canarygrass (littleseed canarygrass, Phalaris minor), chickweed (common chickweed, Stellaria media), galium (catchweed bedstraw, Galium aparine), bromegrass, downy (downy bromegrass, Bromus tectorum), field poppy (Papaver rhoeas), field violet (Viola arvensis), foxtail, green (green foxtail, Setaria viridis), deadnettle (henbit deadnettle, Lamium amplexicaule), ryegrass, Italian (Italian ryegrass, Lolium multiflorum), kochia (Kochia scoparia), lambsquarters (Chenopodium album), oilseed rape (Brassica napus), pigweed (redroot pigweed, Amaranthus retroflexus), chamomile (scentless chamomile, Matricaria inodora), speedwell (bird's-eye speedwell, Veronica persica), barley, spring (spring barley, Hordeum vulgare), wheat, spring (spring wheat, Triticum aestivum), buckwheat, wild (wild buckwheat, Polygonum convolvulus), mustard, wild (wild mustard, Sinapis arvensis), oat, wild (wild oat, Avena fatua), radish, wild (wild radish, Raphanus raphanistrum), windgrass (Apera spica-venti), Russian thistle (Salsola kali), barley, winter (winter barley, Hordeum vulgare), and wheat, winter (winter wheat, Triticum aestivum) were planted into a silt loam soil and treated preemergence with test chemicals formulated in a non-phytotoxic solvent mixture which included a surfactant.
# (§2) At the same time, these species were planted in pots containing Redi-Earth® planting medium (Scotts Company, 14111 Scottslawn Road, Marysville, Ohio 43041) comprising spaghnum peat moss, vermiculite, wetting agent and starter nutrients and treated with postemergence applications of the test chemicals formulated in the same manner. Plants ranged in height from 2 to 18 cm (1- to 4-leaf stage). Treated plants and controls were maintained in a controlled growth environment for 14 to 21 days after which time all species were compared to controls and visually evaluated. Plant response ratings, summarized in Table D, are based on a scale of 0 to 100 where 0 is no effect and 100 is complete control. A dash (-) response means no test result.
# [2] = system: speedwell; assay: Test D postemergence; assay type: in vivo, Veronica persica; conditions: scale 0 to 100
# Excerpt: as §1, §2
# [3] = system: lambsquarters; assay: Test D preemergence; assay type: in vivo, Chenopodium album; conditions: scale 0 to 100
# Excerpt: as §1, §2
# [4] = system: chickweed; assay: Test D postemergence; assay type: in vivo, Stellaria media; conditions: scale 0 to 100
# Excerpt: as §1, §2
# [5] = system: pigweed; assay: Test D preemergence; assay type: in vivo, Amaranthus retroflexus; conditions: scale 0 to 100
# Excerpt: as §1, §2
# [6] = system: wheat, winter; assay: Test D preemergence; assay type: in vivo, Triticum aestivum; conditions: scale 0 to 100
# Excerpt: as §1, §2
# [7] = system: wheat, spring; assay: Test D preemergence; assay type: in vivo, Triticum aestivum; conditions: scale 0 to 100
# Excerpt: as §1, §2
# [8] = system: speedwell; assay: Test D preemergence; assay type: in vivo, Veronica persica; conditions: scale 0 to 100
# Excerpt: as §1, §2
# [9] = system: mustard, wild; assay: Test D preemergence; assay type: in vivo, Sinapis arvensis; conditions: scale 0 to 100
# Excerpt: as §1, §2
# [10] = system: barley, winter; assay: Test D preemergence; assay type: in vivo, Hordeum vulgare; conditions: scale 0 to 100
# Excerpt: as §1, §2
# [11] = system: barley, spring; assay: Test D preemergence; assay type: in vivo, Hordeum vulgare; conditions: scale 0 to 100
# Excerpt: as §1, §2
# [12] = system: field poppy; assay: Test D preemergence; assay type: in vivo, Papaver rhoeas; conditions: scale 0 to 100
# Excerpt: as §1, §2
# [13] = system: southern sandbur; assay: Test F preemergence; assay type: in vivo, Cenchrus echinatus
# Excerpt: (§3) Seeds of plant species selected from corn (Zea mays), soybean (Glycine max), velvetleaf (Abutilon theophrasti), lambsquarters (Chenopodium album), wild poinsettia (Euphorbia heterophylla), pigweed, palmer (palmer pigweed, Amaranthus palmeri), common waterhemp (Amaranthus rudis), surinam grass (Brachiaria decumbens), large crabgrass (Digitaria sanguinalis), crabgrass, Brazil (Brazilian crabgrass, Digitaria horizontalis), fall panicum (Panicum dichotomiflorum), giant foxtail (Setaria faberii), green foxtail (Setaria viridis), goosegrass (Eleusine indica), johnsongrass (Sorghum halepense), common ragweed (Ambrosia elation), barnyardgrass (Echinochloa crus-galli), southern sandbur (Cenchrus echinatus), arrowleaf sida (Sida rhombifolia), Italian ryegrass (Lolium multiflorum), dayflower, VA (Virginia (VA) dayflower, Commelina virginica), field bindweed (Convolvulus arvensis), cocklebur (common cocklebur, Xanthium strumarium), morningglory (Ipomoea coccinea), nightshade (eastern black nightshade, Solanum ptycanthum), kochia (Kochia scoparia), yellow nutsedge (Cyperus esculentus), and hairy beggarticks (Bidens pilosa), were planted into a silt loam soil and treated preemergence with test chemicals formulated in a non-phytotoxic solvent mixture which included a surfactant.
# (§4) At the same time, plants from these crop and weed species and also horseweed (Canada horseweed, Conyza canadensis), smartweed (ladysthumb smartweed, Polygonum persicaria), waterhemp_RES1, (ALS & Triazine resistant common waterhemp, Amaranthus rudis), and waterhemp_RES2, (ALS & HPPD resistant common waterhemp, Amaranthus rudis) were treated with postemergence applications of test chemicals formulated in the same manner. Plants ranged in height from 2 to 18 cm for postemergence treatments (1- to 4-leaf stage). Treated plants and controls were maintained in a greenhouse for 14 to 21 days, after which time all species were compared to controls and visually evaluated. Plant response ratings, summarized in Table F, are based on a scale of 0 to 100 where 0 is no effect and 100 is complete control. A dash (-) response means no test result.
# [14] = system: hairy beggarticks; assay: Test F preemergence; assay type: in vivo, Bidens pilosa
# Excerpt: as §3, §4
# [15] = Preemergence, 31 g ai/ha, scale 0 to 100
# [16] = Preemergence, 62 g ai/ha, scale 0 to 100
# [17] = Preemergence, 125 g ai/ha, scale 0 to 100
# [18] = preemergence, 8 g ai/ha, scale 0 to 100, 100 is complete control
# [19] = preemergence, 16 g ai/ha, scale 0 to 100, 100 is complete control
compound,measurement,setting,value
CCc1cc(C(=O)NC(C)C)nn1Cc1ccnc(C(F)(F)F)c1 [Compound 103],"Ryegrass, Italian plant response rating","[1]; Postemergence, 31 g ai/ha",5
same,"Ryegrass, Italian plant response rating","[1]; Postemergence, 125 g ai/ha",5
same,"Ryegrass, Italian plant response rating","[1]; Postemergence, 250 g ai/ha",35
same,"Ryegrass, Italian plant response rating","[1]; postemergence, 62 g ai/ha",5
same,Speedwell plant response rating,"[2]; Postemergence, 31 g ai/ha",35
same,Speedwell plant response rating,"[2]; Postemergence, 125 g ai/ha",55
same,Speedwell plant response rating,"[2]; Postemergence, 250 g ai/ha",70
same,Speedwell plant response rating,"[2]; postemergence, 62 g ai/ha",45
same,"Plant response rating, Lambsquarters",[3]; 31 g ai/ha,65
same,"Plant response rating, Lambsquarters",[3]; 62 g ai/ha,70
same,"Plant response rating, Lambsquarters",[3]; 125 g ai/ha,100
same,"Plant response rating, Lambsquarters",[3]; 250 g ai/ha,100
same,Chickweed plant response rating,"[4]; Postemergence, 31 g ai/ha",20
same,Chickweed plant response rating,"[4]; Postemergence, 125 g ai/ha",40
same,Chickweed plant response rating,"[4]; Postemergence, 250 g ai/ha",70
same,Chickweed plant response rating,"[4]; postemergence, 62 g ai/ha",25
same,"Plant response rating, Pigweed",[5]; 31 g ai/ha,100
same,"Plant response rating, Pigweed",[5]; 62 g ai/ha,100
same,"Plant response rating, Pigweed",[5]; 125 g ai/ha,100
same,"Plant response rating, Pigweed",[5]; 250 g ai/ha,100
same,"Plant response rating, Wheat, Winter",[6]; 31 g ai/ha,0
same,"Plant response rating, Wheat, Winter",[6]; 62 g ai/ha,10
same,"Plant response rating, Wheat, Winter",[6]; 125 g ai/ha,65
same,"Plant response rating, Wheat, Winter",[6]; 250 g ai/ha,70
same,"Plant response rating, Wheat, Spring",[7]; 31 g ai/ha,0
same,"Plant response rating, Wheat, Spring",[7]; 62 g ai/ha,10
same,"Plant response rating, Wheat, Spring",[7]; 125 g ai/ha,25
same,"Plant response rating, Wheat, Spring",[7]; 250 g ai/ha,85
same,"Plant response rating, Speedwell",[8]; 31 g ai/ha,70
same,"Plant response rating, Speedwell",[8]; 62 g ai/ha,100
same,"Plant response rating, Speedwell",[8]; 125 g ai/ha,100
same,"Plant response rating, Speedwell",[8]; 250 g ai/ha,100
same,"Plant response rating, Mustard, Wild",[9]; 31 g ai/ha,55
same,"Plant response rating, Mustard, Wild",[9]; 62 g ai/ha,60
same,"Plant response rating, Mustard, Wild",[9]; 125 g ai/ha,75
same,"Plant response rating, Mustard, Wild",[9]; 250 g ai/ha,100
same,"Plant response rating, Barley, Winter",[10]; 31 g ai/ha,0
same,"Plant response rating, Barley, Winter",[10]; 62 g ai/ha,35
same,"Plant response rating, Barley, Winter",[10]; 125 g ai/ha,60
same,"Plant response rating, Barley, Winter",[10]; 250 g ai/ha,85
same,"Plant response rating, Barley, Spring",[11]; 31 g ai/ha,15
same,"Plant response rating, Barley, Spring",[11]; 62 g ai/ha,35
same,"Plant response rating, Barley, Spring",[11]; 125 g ai/ha,80
same,"Plant response rating, Barley, Spring",[11]; 250 g ai/ha,100
same,"Plant response rating, Field Poppy",[12]; 31 g ai/ha,100
same,"Plant response rating, Field Poppy",[12]; 62 g ai/ha,100
same,"Plant response rating, Field Poppy",[12]; 125 g ai/ha,100
same,"Plant response rating, Field Poppy",[12]; 250 g ai/ha,100
CCOc1cc(C(=O)NCC(F)(F)F)nn1Cc1ccnc(C(F)(F)F)c1 [Compound 104],"Plant response rating, Southern Sandbur",[13]; [15],20
same,"Plant response rating, Southern Sandbur",[13]; [16],80
same,"Plant response rating, Southern Sandbur",[13]; [17],90
same,"Plant response rating, Southern Sandbur",[13]; [18],0
same,"Plant response rating, Southern Sandbur",[13]; [19],0
same,"Plant response rating, Hairy Beggarticks",[14]; [15],0
same,"Plant response rating, Hairy Beggarticks",[14]; [16],0
same,"Plant response rating, Hairy Beggarticks",[14]; [17],10
same,"Plant response rating, Hairy Beggarticks",[14]; [18],0
same,"Plant response rating, Hairy Beggarticks",[14]; [19],0
CCCc1cc(C(=O)NCC(F)(F)F)nn1Cc1cc(C(F)(F)F)nn1C [Compound 138],"Ryegrass, Italian plant response rating","[1]; Postemergence, 31 g ai/ha",15
same,"Ryegrass, Italian plant response rating","[1]; Postemergence, 125 g ai/ha",15
same,"Ryegrass, Italian plant response rating","[1]; Postemergence, 250 g ai/ha",55
same,"Ryegrass, Italian plant response rating","[1]; postemergence, 62 g ai/ha",15
same,Speedwell plant response rating,"[2]; Postemergence, 31 g ai/ha",100
same,Speedwell plant response rating,"[2]; Postemergence, 125 g ai/ha",100
same,Speedwell plant response rating,"[2]; Postemergence, 250 g ai/ha",100
same,Speedwell plant response rating,"[2]; postemergence, 62 g ai/ha",100
same,"Plant response rating, Lambsquarters",[3]; 62 g ai/ha,85
same,"Plant response rating, Lambsquarters",[3]; 125 g ai/ha,100
same,"Plant response rating, Lambsquarters",[3]; 250 g ai/ha,100
same,Chickweed plant response rating,"[4]; Postemergence, 31 g ai/ha",70
same,Chickweed plant response rating,"[4]; Postemergence, 125 g ai/ha",80
same,Chickweed plant response rating,"[4]; Postemergence, 250 g ai/ha",75
same,Chickweed plant response rating,"[4]; postemergence, 62 g ai/ha",70
same,"Plant response rating, Pigweed",[5]; 62 g ai/ha,100
same,"Plant response rating, Pigweed",[5]; 125 g ai/ha,100
same,"Plant response rating, Pigweed",[5]; 250 g ai/ha,100
same,"Plant response rating, Wheat, Winter",[6]; 62 g ai/ha,30
same,"Plant response rating, Wheat, Winter",[6]; 125 g ai/ha,40
same,"Plant response rating, Wheat, Winter",[6]; 250 g ai/ha,60
same,"Plant response rating, Wheat, Spring",[7]; 62 g ai/ha,10
same,"Plant response rating, Wheat, Spring",[7]; 125 g ai/ha,35
same,"Plant response rating, Wheat, Spring",[7]; 250 g ai/ha,50
same,"Plant response rating, Speedwell",[8]; 62 g ai/ha,100
same,"Plant response rating, Speedwell",[8]; 125 g ai/ha,100
same,"Plant response rating, Speedwell",[8]; 250 g ai/ha,100
same,"Plant response rating, Mustard, Wild",[9]; 62 g ai/ha,100
same,"Plant response rating, Mustard, Wild",[9]; 125 g ai/ha,100
same,"Plant response rating, Mustard, Wild",[9]; 250 g ai/ha,100
same,"Plant response rating, Barley, Winter",[10]; 31 g ai/ha,5
same,"Plant response rating, Barley, Winter",[10]; 62 g ai/ha,35
same,"Plant response rating, Barley, Winter",[10]; 125 g ai/ha,60
same,"Plant response rating, Barley, Winter",[10]; 250 g ai/ha,70
same,"Plant response rating, Barley, Spring",[11]; 31 g ai/ha,0
same,"Plant response rating, Barley, Spring",[11]; 62 g ai/ha,5
same,"Plant response rating, Barley, Spring",[11]; 125 g ai/ha,40
same,"Plant response rating, Barley, Spring",[11]; 250 g ai/ha,75
same,"Plant response rating, Field Poppy",[12]; 62 g ai/ha,100
same,"Plant response rating, Field Poppy",[12]; 125 g ai/ha,100
same,"Plant response rating, Field Poppy",[12]; 250 g ai/ha,100
